Each structure is given as a SMILES string. Activity calls are given as the source filed them. Rule as the data show it: actives have a measured IC50 and inactives only a lower limit.

The IC50 is the concentration at which inhibition is half-maximal.

Sequence of Envelope glycoprotein gp160 (Q6QLK5 whole entry, the tested form may be a part): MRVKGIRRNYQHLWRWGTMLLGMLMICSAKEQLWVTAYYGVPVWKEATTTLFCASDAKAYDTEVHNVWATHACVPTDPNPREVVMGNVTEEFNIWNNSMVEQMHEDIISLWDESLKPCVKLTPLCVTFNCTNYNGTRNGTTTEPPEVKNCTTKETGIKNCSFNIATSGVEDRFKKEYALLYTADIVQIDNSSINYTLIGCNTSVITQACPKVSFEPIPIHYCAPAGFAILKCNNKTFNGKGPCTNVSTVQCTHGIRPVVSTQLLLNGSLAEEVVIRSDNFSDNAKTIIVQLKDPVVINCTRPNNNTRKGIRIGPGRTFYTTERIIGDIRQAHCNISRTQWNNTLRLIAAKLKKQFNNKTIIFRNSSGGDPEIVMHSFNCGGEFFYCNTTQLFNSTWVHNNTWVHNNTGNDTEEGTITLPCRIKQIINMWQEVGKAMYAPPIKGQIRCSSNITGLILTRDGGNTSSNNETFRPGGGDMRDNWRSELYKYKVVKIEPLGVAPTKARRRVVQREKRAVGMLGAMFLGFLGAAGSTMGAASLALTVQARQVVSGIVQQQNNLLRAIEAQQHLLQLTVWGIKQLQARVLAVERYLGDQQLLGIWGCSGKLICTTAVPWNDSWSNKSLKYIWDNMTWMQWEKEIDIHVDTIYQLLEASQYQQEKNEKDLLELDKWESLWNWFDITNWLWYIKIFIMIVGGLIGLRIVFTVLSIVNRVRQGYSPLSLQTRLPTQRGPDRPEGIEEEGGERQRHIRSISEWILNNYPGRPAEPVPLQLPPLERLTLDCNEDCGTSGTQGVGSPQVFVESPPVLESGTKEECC

The assay concerns the target Envelope glycoprotein gp160 (Human immunodeficiency virus 1, UniProt Q6QLK5). The assay can be described thus: cell-free HIV fusion peptide-binding blockers – biochemical, uHTS, fluorescence dequenching, […] (AID 1986).
`O=C1NN(c2ccccc2)C(=O)/C1=C\c1cccc(OC(=O)c2cccs2)c1`: the IC50 is 33.9 µM (active).
On to `O=C(COc1ccc(Cl)cc1)Nc1cc(NC(=O)COc2ccc(Cl)cc2)cc(C(=O)O)c1`, for which the IC50 was 26.4 µM (active).
The result for `Cc1cc(Cl)ccc1OC(C)C(=O)Nc1ccc(C(=O)Nc2ccccc2C(=O)O)cc1` (centres undefined) reads 13.1 µM (active).
The result for `CC1(c2ccccc2)CC(C)(C)N2C(=O)/C(=C3\SC(=S)NC3=O)c3cccc1c32` (centres undefined) reads 83.8 µM (active).
